Measured values as given in ChEMBL document CHEMBL1201862, “PubChem BioAssay data set” (2004).
Active and inactive are the calls of the source.

Experiments:
[1] = Luminescence-based counterscreen assay for KLF5 inhibitors: dose response cell-based high throughput screening assay to identify cytotoxic compounds using the IEC-6 intestinal epithelial cell line. [Related pubchem assays: 1700 (Primary screen.), 1834 (Confirmation screen.), 1858 (Summary AID.), 1905 (Counterscreen.)]; format: functional
BJ = assay: BJ-TERT-LT-ST fibroblast viability loss – cell-based, RAS-independent, luminescence, dose response (AID 1935); format: functional; conditions: Homo sapiens;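 further: BJ fibroblasts immortalized with TERT plus LT and ST oncogenes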
[2] = luciferase reporter signal suppression in cells – H4 neuroglioma cells, luminescence, dose response (AID 1990); format: functional, cell-based
[3] = alpha-synuclein stem-loop luciferase translation blockers – H4 neuroglioma cells, luminescence, confirmation (AID 1988); format: functional, cell-based
Paired box protein Pax-8 = Paired box protein Pax-8 (Homo sapiens, UniProt Q06710); assay: PAX8 transcriptional activity inhibition in RMG-I – RMG-I cells, luciferase, cherry-pick, dose response (AID 687027); format: functional, cell-based;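 further: luciferase reporter driven by Pax8 target thyroperoxidase promoter measured by SteadyGlo luminescence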
[4] = Luminescence Cell-Based Dose Response HTS to Identify Inhibitors of 5'UTR Stem-Loop Driven Prion Protein mRNA Translation in H4 Neuroglioblastoma Cells. [Related pubchem assays: 1827 (Project Summary), 1813 (Primary HTS)]; format: functional
[5] = off-target signal loss in HeLa-CEM21 co-culture – HeLa F-luc CTL cells, cherry-picked, counter-screen for HIV-1 Env fusion inhibitor project, dose response (AID 652040); format: functional, cell-based;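 further: potency for signal decrease marking cytotoxic or nonspecific inhibition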
[6] = target: Heat shock protein HSP 90-alpha (Homo sapiens, UniProt P07900); assay: Luminescence-based dose response biochemical high throughput screening assay for inhibitors of the Heat Shock Protein 90 (HSP90). [Related pubchem assays: 1831 (Summary AID.), 1846 (Confirmation screen.), 1789 (Primary screen.)]
[7] = target: T1, Apoptotic protease-activating factor 1 (Homo sapiens, UniProt O14727); format: functional
T1 sequence (O14727 whole entry): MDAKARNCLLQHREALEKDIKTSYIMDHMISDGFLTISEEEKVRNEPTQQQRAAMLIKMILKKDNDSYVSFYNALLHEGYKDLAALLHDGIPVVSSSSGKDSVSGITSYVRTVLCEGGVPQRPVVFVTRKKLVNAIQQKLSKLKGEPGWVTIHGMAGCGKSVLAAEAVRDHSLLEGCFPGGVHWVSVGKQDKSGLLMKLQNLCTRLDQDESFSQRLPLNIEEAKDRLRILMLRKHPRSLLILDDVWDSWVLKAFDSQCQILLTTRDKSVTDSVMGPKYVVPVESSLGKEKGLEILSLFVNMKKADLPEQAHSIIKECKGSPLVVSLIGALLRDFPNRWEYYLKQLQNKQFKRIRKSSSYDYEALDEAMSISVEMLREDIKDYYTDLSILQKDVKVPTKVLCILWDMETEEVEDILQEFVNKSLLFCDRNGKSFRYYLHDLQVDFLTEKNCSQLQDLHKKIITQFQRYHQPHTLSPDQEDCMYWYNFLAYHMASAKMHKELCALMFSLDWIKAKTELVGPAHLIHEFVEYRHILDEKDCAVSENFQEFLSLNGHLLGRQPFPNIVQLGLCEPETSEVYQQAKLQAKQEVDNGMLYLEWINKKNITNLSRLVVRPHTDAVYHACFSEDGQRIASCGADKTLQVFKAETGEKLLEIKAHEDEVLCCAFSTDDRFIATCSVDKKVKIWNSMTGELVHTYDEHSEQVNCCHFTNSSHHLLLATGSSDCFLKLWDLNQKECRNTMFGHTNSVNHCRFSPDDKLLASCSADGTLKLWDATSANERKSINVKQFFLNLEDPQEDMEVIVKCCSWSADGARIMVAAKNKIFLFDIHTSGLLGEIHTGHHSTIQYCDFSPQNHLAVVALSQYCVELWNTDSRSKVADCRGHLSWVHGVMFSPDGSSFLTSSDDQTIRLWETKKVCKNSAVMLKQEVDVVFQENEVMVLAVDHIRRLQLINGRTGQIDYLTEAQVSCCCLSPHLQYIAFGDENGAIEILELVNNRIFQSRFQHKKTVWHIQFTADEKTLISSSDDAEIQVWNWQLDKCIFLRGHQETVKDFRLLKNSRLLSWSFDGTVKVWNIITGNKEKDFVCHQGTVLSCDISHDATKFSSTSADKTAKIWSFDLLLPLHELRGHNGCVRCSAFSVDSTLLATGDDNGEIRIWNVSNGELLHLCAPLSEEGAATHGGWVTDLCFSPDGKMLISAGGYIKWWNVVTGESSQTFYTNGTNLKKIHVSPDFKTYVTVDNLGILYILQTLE

[8] = decrease of insulin promoter-GFP reporter – imaging, high-content screening, mouse beta cells (AID 1628); format: functional; conditions: MIN6
[9] = MIN6 cell viability loss – mouse insulinoma, cytotoxicity control, dose response (AID 2122); format: functional;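 further: confirmatory high-throughput counterscreen run to flag cytotoxic compounds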
[10] = loss of viability in HepG2 cells – cell-based, CellTiter-Glo, cherry-picked, cytotoxicity control for Shn3 inhibitor project, dose response (AID 624134); format: functional
[11] = Vero E6 cell cytotoxicity, dose response, cytotoxicity control for non-replicating M. tuberculosis project, secondary assay (AID 492998); format: functional, VeroE6; conditions: Vero C1008
[12] = HepG2 cell cytotoxicity, dose response, cytotoxicity control for non-replicating M. tuberculosis project (AID 489018); format: functional; conditions: Mycobacterium tuberculosis
[13] = microbe, parasite or virus in culture; format: functional; conditions: Mycobacterium tuberculosis
[14] = non-specific 3'UTR reporter inhibition in Clone20-Shn3RL – cell-based, Renilla luciferase, cherry-picked, counter-screen for Shn3 inhibitor project, dose response (AID 624133); format: functional
[15] = target: T2, Sphingosine 1-phosphate receptor 4 (Homo sapiens, UniProt O95977); assay: Fluorescence dose response cell-based high throughput screening assay for antagonists of the Sphingosine 1-Phosphate Receptor 4 (S1P4). [Related pubchem assays: 1524 (Confirmation in triplicates.), 1510 (Primary screen.)]; format: functional
T2 sequence (O95977 whole entry): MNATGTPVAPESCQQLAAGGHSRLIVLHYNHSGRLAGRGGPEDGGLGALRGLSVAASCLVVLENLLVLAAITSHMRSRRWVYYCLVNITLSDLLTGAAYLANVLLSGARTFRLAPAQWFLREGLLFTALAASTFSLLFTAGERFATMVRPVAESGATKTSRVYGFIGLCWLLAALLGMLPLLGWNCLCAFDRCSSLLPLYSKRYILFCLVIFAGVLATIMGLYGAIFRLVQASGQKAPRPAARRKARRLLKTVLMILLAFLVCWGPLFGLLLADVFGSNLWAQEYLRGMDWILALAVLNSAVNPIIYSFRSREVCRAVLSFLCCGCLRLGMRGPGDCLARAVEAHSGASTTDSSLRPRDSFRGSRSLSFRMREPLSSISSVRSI

Beta-galactosidase = Beta-galactosidase (Escherichia coli, UniProt Q8VNN2); assay: PubChem AID 485352; format: functional
cells = format: functional

Chain of Paired box protein Pax-8 (Q06710 whole entry): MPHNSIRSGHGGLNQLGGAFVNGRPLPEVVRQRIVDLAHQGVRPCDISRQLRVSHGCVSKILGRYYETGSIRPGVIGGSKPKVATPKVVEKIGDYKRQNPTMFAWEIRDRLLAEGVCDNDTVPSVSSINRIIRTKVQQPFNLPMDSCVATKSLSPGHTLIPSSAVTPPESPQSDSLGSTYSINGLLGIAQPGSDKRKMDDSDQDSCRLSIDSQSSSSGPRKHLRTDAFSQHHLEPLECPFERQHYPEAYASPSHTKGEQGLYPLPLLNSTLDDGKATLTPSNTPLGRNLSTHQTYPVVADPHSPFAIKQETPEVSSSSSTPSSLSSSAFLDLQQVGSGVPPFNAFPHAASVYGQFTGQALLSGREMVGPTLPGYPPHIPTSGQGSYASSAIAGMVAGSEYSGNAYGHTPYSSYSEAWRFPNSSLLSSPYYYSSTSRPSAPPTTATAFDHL
Chain of Beta-galactosidase (Q8VNN2 whole entry): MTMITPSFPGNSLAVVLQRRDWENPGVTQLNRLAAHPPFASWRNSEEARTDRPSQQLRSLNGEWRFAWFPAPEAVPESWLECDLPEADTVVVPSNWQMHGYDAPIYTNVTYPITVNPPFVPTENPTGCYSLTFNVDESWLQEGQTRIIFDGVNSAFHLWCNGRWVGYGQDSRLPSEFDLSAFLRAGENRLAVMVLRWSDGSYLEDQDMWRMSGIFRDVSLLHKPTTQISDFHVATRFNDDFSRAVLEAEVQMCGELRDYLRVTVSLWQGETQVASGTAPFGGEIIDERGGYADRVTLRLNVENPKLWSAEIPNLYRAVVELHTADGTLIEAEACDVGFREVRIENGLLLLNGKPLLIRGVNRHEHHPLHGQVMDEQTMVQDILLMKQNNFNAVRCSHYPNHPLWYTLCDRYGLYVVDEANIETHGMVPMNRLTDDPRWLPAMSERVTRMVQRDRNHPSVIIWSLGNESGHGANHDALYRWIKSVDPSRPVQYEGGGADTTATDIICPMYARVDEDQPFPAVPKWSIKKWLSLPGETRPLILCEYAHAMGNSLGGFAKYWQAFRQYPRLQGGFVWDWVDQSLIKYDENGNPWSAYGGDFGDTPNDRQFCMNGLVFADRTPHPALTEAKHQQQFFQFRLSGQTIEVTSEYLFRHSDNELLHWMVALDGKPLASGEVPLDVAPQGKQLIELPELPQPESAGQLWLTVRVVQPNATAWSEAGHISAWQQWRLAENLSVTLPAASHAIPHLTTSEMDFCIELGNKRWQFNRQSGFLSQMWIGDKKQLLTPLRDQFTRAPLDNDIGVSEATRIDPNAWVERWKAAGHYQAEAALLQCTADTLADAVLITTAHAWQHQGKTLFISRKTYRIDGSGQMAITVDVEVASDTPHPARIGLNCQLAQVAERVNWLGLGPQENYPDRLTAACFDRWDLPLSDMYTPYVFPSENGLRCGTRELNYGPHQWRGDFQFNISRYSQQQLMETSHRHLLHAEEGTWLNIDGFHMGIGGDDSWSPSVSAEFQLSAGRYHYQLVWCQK

COc1cccc(/C=N/Nc2ccc([N+](=O)[O-])cn2)c1O
inconclusive: EC50 (BJ) 4.96 µM
16.2 µM (not active): IC50 [1]
active: EC50 [2] 2.97 µM | EC50 [3] 0.54 µM | AC50 (Paired box protein Pax-8) 6.41 µM | EC50 [4] 0.34 µM

CCc1ccc(S(=O)(=O)/N=C2\C=C(Nc3ccc(C(=O)O)cc3)C(=O)c3ccccc32)cc1
active: AC50 [5] 1.29 µM | IC50 [6] 0.966 µM | IC50 [7] 9.6 µM

Oc1c(C(c2ccccc2Cl)N2CCCC2)ccc2cccnc12 (centres undefined)
active: IC50 [8] 5.2 µM | IC50 [9] 4.59 µM | AC50 [10] 46.9 µM | CC50 [11] 9.56 µM | CC50 [12] 17.6 µM | CC50 [13] 30.5 µM | AC50 [14] 6.38 µM | IC50 [15] 2.25 µM | IC50 (cells) 13.2 µM
inactive: EC50 (Beta-galactosidase) > 40 µM
